Measurements published in patent US6610657B1, “Alkyl peptide amides and applications” (Promega Corporation, priority 1996, dated 2003).
*: point of attachment. Stearyl = stearyl group; stearyl = stearyl group; sulfo = O=S(=O)(O)*

Key:
[1] = system: PKA in bovine caudal and caput sperm; test: PKA activity of bovine caudal and caput sperm after treatment; assay type: cell-based; settings: 50 μM
Experimental: PKA Activity. PKA activity was assayed as previously described (Carr et al., J. Biol. Chem. 268:20729-20732, 1993) with minor changes. Whole caput or caudal sperm were treated with 2-chloro-2′-deoxyadenosine (50 μM), H-89 (50 μM), or both for 30 min. at 37° C. The sperm were then washed twice in ice cold homogenization buffer supplemented with protease inhibitors, benzamidine (10 mM), leupeptin (4 μg/ml), and N-tosyl-L-phenylalanine chloromethyl ketone (TPCK) (100 μM), and sonicated for one min. Reaction mixtures (20 microliters (μl) total) contained 250 μM Kemptide (i.e., LRRASLG), 250 μM (γ^32P) ATP, 25 mM Na3VO4, 50 mM 3-[N-morpholino] propanesulfonic acid (MOPS) (pH=7.0), 10 mM MgCl2, 0.25 mg/ml BSA and where indicated, 10 μM cAMP. Assays were initiated by addition of labeled ATP, incubated for 2 min at 30° C., and stopped by addition of 30 μl of 1 N HCl. Twenty μl of the reaction was then spotted on phosphocellulose paper followed by three washes in 75 mM phosphoric acid. The papers were then analyzed by Cerenkov counting. All determinations were made in quadruplicate.
In previous reports, initiation or stimulation of sperm motility by CDA was associated with an elevation of cAMP and an increase in PKA activity was assumed (Vijayaraghavan and Hoskins, Biol. Reprod. 34:468-77, 1986). […] Bovine sperm were incubated as described for FIGS. 14 and 15 and then assessed for PKA activity. […]

[2] = system: bovine caudal epididymal sperm; test: Bovine sperm motility (CASMA, forward motility index); assay type: cell-based
Experimental: (§1) Sperm Preparation. Testes from mature bulls with intact tunica were obtained from a local slaughterhouse and sperm from caput or caudal epididymis were isolated and washed as previously described (Vijayaraghavan et al., Biol. Reprod. 32:489-500, 1985). The sperm were resuspended in buffer A (120 mM NaCl, 10 mM KCl, 10 mM Tris[hydroxymethyl]aminomethane (TRIS), pH 7.4) supplemented with 10 mM glucose and 10 mg/ml bovine serum albumin (BSA) for motility measurements. Monkey semen was obtained by electro-ejaculation and processed by procedures previously reported (Smith et al., Biol. Reprod. 54:719-727, 1996). Human semen samples were obtained from a fertility clinic at the Oregon Health Sciences University.
(§2) Sperm Motility Measurement. Head motility parameters were determined as previously described (Vijayaraghavan et al., Biol. Reprod. 54:709-718, 1996; Stephens et al., Biol. Reprod. 38:577-586, 1988). A 3-4 μL aliquot of sperm suspension (5×10^7/ml) was loaded onto a counting chamber at 37° C. After bulk fluid movement had subsided, six different locations on the slide were recorded. The videotaped segments were analyzed by a computerized image-analysis system (CASMA) as previously described (Vijayaraghavan et al., Biol. Reprod. 54:709-718, 1996; Stephens et al., Biol. Reprod. 38:577-586, 1988). This computer system measured several parameters of head motion, including forward motility. The forward Motility Index (FMI) was used as the measure of motility. FMI is a product of percent motile (%M, percent of sperm moving at velocity greater than 20 mm/sec) and average velocity (Va, the five-point smoothed average of the head positions through analysis of at least twenty frames).

[3] = system: sperm; assay type: cell-based
Experimental: In the first such experiment, the vital dyes SYBR-green and rhodamine 123 were added to sperm before and after treatment with s-Ht31 in order to determine whether s-Ht31 affects sperm viability or structural integrity. Only viable, intact cells normally take up such dyes.

[4] = system: RII binding to AKAP 110; test: RII overlay assay on bovine sperm AKAP; settings: 20 μM peptide, densitometric scanning, FIG. 6
Excerpt: Western blotting and overlay assays. The overlay procedure is a modified Western blot procedure. Proteins were separated by SDS-polyacrylamide gel electrophoresis (SDS-PAGE) and transferred to a nylon membrane (Immobilon). After treatment with Blotto (Protein Methods, Bollag and Edelstein, eds., Wiley-Liss, New York, 1991) to prevent non-specific binding, radiolabelled RIIα or RIIβ probes were applied (Carr and Scott, Trends Biochem. Sci. 17:246-249, 1992). Recombinant RIIα was produced as previously described (Carr et al., J. Biol. Chem. 266:14188-14192, 1991; Carr et al., J. Biol. Chem. 267:13376-13382, 1992). RIIα and RIIβ were gifts from Dr. John Scott, Oregon Health Sciences University, Portland, Oreg. Two different variations of the overlay assay were used. In the first variation, recombinant RII radiolabeled by incubation with the catalytic subunit of PKA and γ^32P-ATP was used. After separation from free γ^32P-ATP, the ^32P-labeled RII (500,000 CPM/10 ml blotto) was incubated with the blocked blot for four hours followed by washing and autoradiography. […]
RII overlays were performed in the absence (lane 1) or presence of 20 μM Ht31, s-Ht31, or s-Ht31-P (lanes 2, 3 or 4, respectively). Addition of the three peptide species inhibited RII binding to AKAP110 by 100%, 85% and 0%, respectively, as determined by densitometric scanning analysis.

[5] = system: monkey ejaculated sperm; test: Monkey sperm motility; assay type: cell-based, rhesus monkey; settings: increasing concentrations in neat semen, 37° C., 5 and 30 min, FIG. 11
Experimental: as §1
as §2, with “The forward Motility Index (FMI) was used as the measure of motility. FMI is a product of percent motile (%M, percent of sperm moving at velocity greater than 20 mm/sec) and average velocity (Va, the five-point smoothed average of the head positions through analysis of at least twenty frames).” left out

[6] = system: insulin receptor; settings: intact CHO/HIRc cells; cited from earlier work
[7] = target: PP-2A (Homo sapiens, UniProt P67775); settings: cited from earlier work
[8] = system: alkaline phosphatase; settings: cited from earlier work
[9] = target: PP-1 (Homo sapiens, UniProt P62136); settings: cited from earlier work
[10] = target: RII, 32P-labeled recombinant regulatory subunit of PKA (isoform not given) used as overlay probe; test: RII overlay of bovine sperm blot with 20 µM peptide, densitometric scanning
[11] = target: endogenous RII isoforms of sperm (bands at about 55 kDa); test: cell-based or functional assay

PP-1, sequence (P62136 whole entry, canonical isoform): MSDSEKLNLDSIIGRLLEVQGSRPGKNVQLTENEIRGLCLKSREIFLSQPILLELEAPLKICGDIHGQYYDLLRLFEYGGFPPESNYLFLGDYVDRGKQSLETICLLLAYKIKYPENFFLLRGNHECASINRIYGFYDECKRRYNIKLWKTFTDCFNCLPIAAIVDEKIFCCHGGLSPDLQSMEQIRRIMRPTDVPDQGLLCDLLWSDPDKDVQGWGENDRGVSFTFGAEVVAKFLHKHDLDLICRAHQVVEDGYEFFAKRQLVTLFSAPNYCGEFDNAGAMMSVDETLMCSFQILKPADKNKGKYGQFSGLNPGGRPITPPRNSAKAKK
PP-2A, sequence (P67775 whole entry): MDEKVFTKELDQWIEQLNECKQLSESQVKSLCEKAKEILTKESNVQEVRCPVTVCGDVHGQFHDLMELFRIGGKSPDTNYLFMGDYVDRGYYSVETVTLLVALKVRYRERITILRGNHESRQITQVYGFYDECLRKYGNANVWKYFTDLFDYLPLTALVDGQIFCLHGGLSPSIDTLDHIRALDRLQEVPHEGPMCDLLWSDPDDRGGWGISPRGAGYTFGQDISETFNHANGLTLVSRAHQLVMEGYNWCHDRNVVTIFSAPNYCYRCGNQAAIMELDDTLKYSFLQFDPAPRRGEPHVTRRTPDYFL

Molecule: Nc1nc(Cl)nc2c1ncn2[C@H]1C[C@H](O)[C@@H](CO)O1 [CDA, 2-chloro-2′-deoxyadenosine]
- Increase of basal PKA activity ([1]; 30 min at 37° C., both caudal and caput sperm): approximately 60%

Molecule: O=S(=O)(NCCNCC=Cc1ccc(Br)cc1)c1cccc2cnccc12 [H-89, N-[2-(p-bromocinnamylamino)ethyl]-5-isoquinoline-sulfonamide]
- Effect on PKA activity of treated sperm ([1]; in the presence or absence of CDA, sperm washed before lysis): strongly inhibited PKA activity
- Effect on sperm motility stimulated by CDA ([2]; 50 μM H-89 added 15 min prior to 50 μM CDA): no effect
- inhibition at 50 µM ([2]; Bos taurus, Sperm, 0.25 h, 50 μM, 15 min, FIG. 14, read-out: Inhibition of basal sperm motility): ≤ 50%

Molecule: C[C@@H]1CC[C@@]2(OC1)O[C@H]1[C@@H](O)[C@H]3[C@@H]4CC[C@H]5C[C@@H](O[C@@H]6O[C@H](CO)[C@H](O[C@@H]7O[C@H](CO)[C@@H](O)[C@H](O[C@@H]8OC[C@@H](O)[C@H](O)[C@H]8O)[C@H]7O[C@@H]7O[C@H](CO)[C@H](O)[C@H](O[C@@H]8O[C@H](CO)[C@@H](O)[C@H](O)[C@H]8O)[C@H]7O)[C@H](O)[C@H]6O)[C@H](O)C[C@]5(C)[C@H]4CC[C@]3(C)[C@H]1[C@@H]2C [digitonin]
- Release of BCECF or Fura 2 from loaded sperm [3]: caused release of these dyes

Molecule: CCCCCCCCCCCCCCCCCC(=O)N[C@@H](CC(=O)O)C(=O)N[C@@H](CC(C)C)C(=O)N[C@H](C(=O)N[C@@H](CCC(=O)O)C(=O)N[C@@H](CCC(=O)O)C(=O)N[C@@H](C)C(=O)N[C@@H](C)C(=O)N[C@@H](CO)C(=O)N[C@@H](CCCNC(=N)N)C(=O)N[C@H](C(=O)N[C@H](C(=O)N[C@@H](CC(=O)O)C(=O)N[C@@H](C)C(=O)N[C@H](C(=O)N[C@H](C(=O)N[C@@H](CCC(=O)O)C(=O)N[C@@H](CCC(N)=O)C(=O)N[C@H](C(=O)N[C@@H](CCCCN)C(=O)N[C@@H](C)C(=O)N[C@@H](C)C(=O)NCC(=O)N[C@@H](C)C(=O)N[C@@H](Cc1ccc(O)cc1)C(=O)O)C(C)C)[C@@H](C)CC)C(C)C)C(C)C)[C@@H](C)CC)[C@@H](C)CC [s-Ht31]
- Effect on sperm viability / plasma membrane integrity (uptake of SYBR-green and rhodamine 123) [3]: did not decrease viability or disrupt the integrity of the sperm plasma membrane
- Release of BCECF or Fura 2 from loaded sperm [3]: did not compromise the integrity of the plasma membrane

Molecule: DLIEEAASRIVDAVIEQVKAAGAY (listed as Homo sapiens) [Ht31]
- Inhibition of RII binding to AKAP110 [4]: 100%

Molecule: Stearyl-DLIEEAASRPVDAVPEQVKAAGAY amide (Stearyl-DLIEEAASRPVDAVPEQVKAAGAY-NH2; listed as Homo sapiens) [s-Ht31-P]
- Effect on sperm motility ([2]; concentrations up to 20 μM, 5 min): no effect

Molecule: Stearyl-YETLLIETASSLVKNAIQLSIE amide (Stearyl-YETLLIETASSLVKNAIQLSIE-NH2; listed as Homo sapiens) [s-AKAP79]
- Effect on motility of monkey-ejaculate sperm [5]: inhibited sperm motility in a concentration- and time-dependent manner

Molecule: TRDIYETDYYRK-amide (Stearyl-TRDIY(sulfo)ETDY(sulfo)Y(sulfo)RK-NH2; not fully specified; printed as TRDIYETDYYRK-amide; listed as Homo sapiens)
- Increase in insulin-stimulated receptor autophosphorylation [6]: 4.5 fold
- Effect on activity of PP-2A [7]: did not have an effect
- Effect on activity of alkaline phosphatase [8]: did not have an effect
- Effect on activity of PP-1 [9]: did not have an effect

Molecule: DLIEEAASRIVDAVIEQVKAAGAY [Ht31 (anchor inhibiting peptide, non-stearated)]
- percent inhibition of RII binding to AKAP110 [10]: 100%

Molecule: Stearyl-DLIEEAASRIVDAVIEQVKAAGAY-NH2 (not fully specified) [s-Ht31: Stearyl-… amide]
- percent inhibition of RII binding to AKAP110 [10]: 85%
- concentration of s-Ht31 needed to produce 50% inhibition of bovine sperm motility, five minutes post-treatment [11]: 1 µM

Molecule: stearyl-DLIEEAASRPVDAVPEQVKAAGAY-NH2 [s-Ht31-P: Stearyl-… amide]
- percent inhibition of RII binding to AKAP110 [10]: 0%
